Read-outs that look alike come from different tables or passages of the source. Some results are limits rather than exact numbers.

Consider one molecule from paper PMC3906007, “Discovery of a Small Molecule Agonist of Phosphatidylinositol 3-Kinase p110α That Reactivates Latent HIV-1” (PLoS ONE, 2014).

Data set [1] in a line: Cytotoxicity (MTT or CellTiter 96), HeLa. It is filed as cell-based. The settings on record: human, HeLa cells; 24 hour incubation; mean ± SD, 3 replicates. As to the method:
(§1) Following a 24 hour incubation period, cell viability was measured using either the MTT (Roche Applied Science, Indianapolis, IN) or CellTiter 96 proliferation (Promega, WI) assay.

Data set [2] is described as follows: Cytotoxicity (MTT or CellTiter 96), 293T. The settings on record: human, 293T cells; 24 hour incubation; mean ± SD, 3 replicates. It is filed as cell-based. The protocol: as §1
The test system of data set [3] is latent HIV-1 in ACH2 cell line. Kind of data set: Latent HIV-1 reactivation in ACH2 cells (quantitative PCR of early and late viral RNA transcripts). It is filed as cell-based. The protocol:
Three different cell lines of HIV-1 latency were used in this study. These included J89GFP, U1 and ACH-2 cells. The J89GFP cells were a kind gift from Dr. David Levy. The ACH-2 and U1 cells were obtained through the AIDS Research and Reference Reagent Program, Division of AIDS, NIAID, NIH: Dr. Thomas Folks contributor [19]–[21]. Reactivation of latent HIV-1 in the J89GFP cells was measured by quantifying the percentage of EGFP positive cells using a BD FACScan flow cytometer with BD FACSDiva software (BD Biosciences, CA), as described previously. Reactivation of latent HIV-1 in the ACH-2 and U 1 cells was assessed by quantitative analysis of initiated and elongated HIV-1 transcripts, as described previously. All 3 cell lines were maintained in RMPI 1640 medium supplemented with 10% FBS, 0.3 mg/mL L-glutamine, 100 U/mL penicillin, and 100 µg/mL streptomycin at 37°C in humidified air with 5% CO2.
Figure 2 Latent HIV-1 reactivation activity of 57704, alone and in combination with other inducing agents, in the U1 and ACH2 cell line models of virus latency. HIV-1 expression was assessed by quantitative PCR analysis of early and late viral RNA transcripts. Where appropriate, TNFα was used as an activation control. (A) Latent HIV-1 reactivation of activity 57704 in the J89GFP cell line. […] EC50 values were determined in Sigma Plot by nonlinear regression, as described previously. […]

The next data set relates to PI3K p110γ RNA. Briefly: PI3K isoform RNA transcript levels in J89GFP cells, p110γ. It is filed as cell-based. The note with it: 5 µM.
Data set [4] is described as follows: Cytotoxicity (MTT or CellTiter 96), CD8+-depleted MNC. The note with it: human, CD8+-depleted mononuclear cells (MNC) from whole blood; 24 hour incubation; mean of 2 replicates. It is filed as cell-based. As to the method: as §1
CD8+T-cells were depleted from whole blood using RosetteSep Human CD8 Depletion Cocktail (StemCell Technologies, Vancouver, BC) according to manufacturer's instructions. 2×10^6 CD4^+ MNC cells were seeded in triplicate per treatment in 48-well plates and allowed to rest overnight. All wells were maintained in 81 nM efavirenz. […] Activation controls were treated with CD3/CD28 Dynabeads (Life Technologies, Grand Island, NY). After 7 days of incubation, supernatants from triplicate wells were pooled, centrifuged (500 g×5 min), and stored at −80°C. HIV-1 RNA levels in supernatants were determined using the COBAS® AmpliPrep/COBAS® TaqMan® HIV-1 Test, v2.0 (Roche, Indianapolis, IN).

A further data set has as its system PI3K p110β RNA. It is filed as cell-based. The settings on record: J89GFP cells; 5 µM.
The target of another data set is T1, HDAC2 (Homo sapiens, UniProt Q92769).
T1 construct: purchased BPS Bioscience (San Diego, CA)
Briefly: biochemical. The settings on record: recombinant purified enzyme; read-out: 57704 IC50, HDAC2. As to the method: (§2) The lysine deacetylase activity of HDACs 1, 2, 3, and 8 was assessed using the Fluorogenic HDAC Assay (BPS Bioscience, San Diego, CA) according to the manufacturer's instructions. […] All assays were carried out under steady-state conditions and the assay read-out was optimized for linearity both as a function of time and enzyme concentration. The formation of the fluorescent product was measured using a SpectraMax M2 Plate Reader (Molecular Devices, CA). The excitation and emission wavelengths were 360 nm and 450 nm, respectively.

The subject of a further data set is Akt phosphorylation. Briefly: Western blot analysis of phosphorylated Akt in J89GFP cells. It is filed as cell-based. The settings on record: 5 µM 57704. The protocol:
To gain insight into the mechanism by which 57704 reactivates latent HIV-1, we evaluated its activity in combination with inhibitors of different signaling pathways or kinases in J89GFP cells (Fig. 4A, B). […] To determine whether 57704 directly activated the PI3K/Akt signaling pathway, we next assessed the levels of Akt phosphorylation in the J89GFP cells after exposure to 5 µM 57704.
On the technique in general: A western blot detects proteins with antibodies after separation by electrophoresis.

Data set [5] has as its system latent HIV-1 in ACH2 and U1 cell lines. Briefly: Latent HIV-1 reactivation, range across cell lines of virus latency. It is filed as cell-based. The note with it: Human immunodeficiency virus 1, ACH-2, read-out: EC50, reactivation of latent HIV-1 gene expression.
Another data set addresses T2, HDAC3 (Homo sapiens, UniProt O15379).
T2 construct: purchased BPS Bioscience (San Diego, CA)
Briefly: Fluorogenic HDAC activity assay, HDAC3 complexed with NCOR2. It is filed as biochemical. As to the method:
as §2

For a further data set, the system named is PI3K p110α RNA. Kind of data set: PI3K isoform RNA transcript levels in J89GFP cells, p110α. It is filed as cell-based. The note with it: 5 µM.
A further data set relates to PI3K p110δ RNA. Kind of data set: PI3K isoform RNA transcript levels in J89GFP cells, p110δ. It is filed as cell-based. The settings on record: 5 µM.
The target of the next data set is T3, HDAC8 (Homo sapiens, UniProt Q9BY41).
T3 construct: purchased BPS Bioscience (San Diego, CA)
T3 sequence (Q9BY41 1-377): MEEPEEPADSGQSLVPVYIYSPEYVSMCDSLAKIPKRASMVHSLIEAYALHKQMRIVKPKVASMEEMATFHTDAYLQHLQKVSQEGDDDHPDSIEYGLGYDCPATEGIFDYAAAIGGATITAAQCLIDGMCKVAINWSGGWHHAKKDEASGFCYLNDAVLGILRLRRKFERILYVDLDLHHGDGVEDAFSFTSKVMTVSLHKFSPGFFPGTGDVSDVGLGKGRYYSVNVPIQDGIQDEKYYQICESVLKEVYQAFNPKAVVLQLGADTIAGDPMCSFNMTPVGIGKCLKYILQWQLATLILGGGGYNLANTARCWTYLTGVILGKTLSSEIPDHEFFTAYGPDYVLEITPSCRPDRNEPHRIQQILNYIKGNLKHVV
Kind of data set: Fluorogenic HDAC activity assay, HDAC8. It is filed as biochemical. The protocol:
as §2

T2 sequence (O15379 whole entry): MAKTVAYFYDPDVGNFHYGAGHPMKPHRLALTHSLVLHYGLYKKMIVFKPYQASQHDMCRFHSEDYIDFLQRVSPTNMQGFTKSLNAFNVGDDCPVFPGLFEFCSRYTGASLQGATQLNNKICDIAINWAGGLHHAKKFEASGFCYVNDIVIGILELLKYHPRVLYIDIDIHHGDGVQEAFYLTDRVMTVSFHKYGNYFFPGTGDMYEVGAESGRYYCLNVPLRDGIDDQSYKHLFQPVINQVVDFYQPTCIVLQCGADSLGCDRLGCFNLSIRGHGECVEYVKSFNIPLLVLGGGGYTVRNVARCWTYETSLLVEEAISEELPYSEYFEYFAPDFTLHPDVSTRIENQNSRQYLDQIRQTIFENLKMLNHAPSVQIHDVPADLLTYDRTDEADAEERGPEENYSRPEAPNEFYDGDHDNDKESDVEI
T2 sequence (Q9Y618 395-489 partner limits assumed): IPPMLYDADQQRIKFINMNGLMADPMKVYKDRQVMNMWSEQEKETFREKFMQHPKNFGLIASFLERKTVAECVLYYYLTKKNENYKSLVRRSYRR
T1 sequence (Q92769 whole entry): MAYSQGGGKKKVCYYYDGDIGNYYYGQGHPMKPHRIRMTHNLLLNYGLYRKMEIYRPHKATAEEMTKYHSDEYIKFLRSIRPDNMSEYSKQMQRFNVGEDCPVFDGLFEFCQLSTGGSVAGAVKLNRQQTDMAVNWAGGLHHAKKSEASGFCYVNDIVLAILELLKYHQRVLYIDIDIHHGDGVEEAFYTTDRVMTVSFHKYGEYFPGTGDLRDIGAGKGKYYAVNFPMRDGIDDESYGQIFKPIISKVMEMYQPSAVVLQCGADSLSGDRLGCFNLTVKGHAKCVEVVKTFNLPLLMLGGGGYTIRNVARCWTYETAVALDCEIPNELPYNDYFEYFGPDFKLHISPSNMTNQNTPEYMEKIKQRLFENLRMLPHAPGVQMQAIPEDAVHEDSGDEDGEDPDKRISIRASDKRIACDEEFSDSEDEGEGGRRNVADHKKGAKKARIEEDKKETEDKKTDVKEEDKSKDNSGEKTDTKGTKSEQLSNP

The term CC50 denotes the concentration giving 50% cytotoxicity. A high value points to better tolerance by the cells. One may read the EC50 as the concentration at which the effect is half-maximal. Usually IC50 stands for the point on the concentration scale where inhibition reaches its midpoint. As to `COc1cc2c(cc1OC)-c1c(OC)c(OC)cc3ccnc(c13)C2=O` [Compound 57704, 1,2,9,10-tetramethoxy-7H-dibenzo[de,g]quinolin-7-one], the half-maximal cytotoxic concentration (CC50) at 24 h in data set [1] is 293 ± 56.4 µM; in data set [2] it was 106 ± 31.4 µM; in data set [4], 80 µM. Also, the EC50 in data set [3] (Human immunodeficiency virus 1, ACH-2, read-out: EC50, activation of early HIV-1 gene transcript expression) is 9 µM; in data set [3] (Human immunodeficiency virus 1, ACH-2, read-out: EC50, activation of late HIV-1 gene transcript expression) it was 6.2 µM; in data set [5], 5 to 9 µM. Also, the “Effect on PI3K p110γ RNA transcript levels” value with PI3K p110γ RNA is “no effect”. For the same molecule, the “Decrease of PI3K p110β RNA levels” value with PI3K p110β RNA was approximately 2 fold. Besides, the IC50 at HDAC2, at HDAC3 and against HDAC8 was more than 50 µM in each case. Also, the “Akt phosphorylation (Western blot)” value with Akt phosphorylation is on record as “increased Akt phosphorylation”. Moreover, the “Effect on PI3K p110α RNA transcript levels” value in the data set with PI3K p110α RNA is reported as “no effect”. Further, in the data set with PI3K p110δ RNA, the “Effect on PI3K p110δ RNA transcript levels / gene expression” value is on record as “no effect”.
